Measurements reported in BindingDB's records for doi:10.1021/acsmedchemlett.8b00549 (Stellenbosch University, 2019).

Tests used:
[1] = Inhibition of wild-type HIV1 reverse transcriptase in HIV1 infected HEK293T cells harboring luciferase gene assessed as reduction in viral infection after 48 hrs by Bright-Glo luciferase assay
[2] = Inhibition of HIV1 reverse transcriptase Y188C mutant in HIV1 infected HEK293T cells harboring luciferase gene assessed as reduction in viral infection after 48 hrs by Bright-Glo luciferase assay
[3] = Inhibition of HIV1 reverse transcriptase V106M mutant in HIV1 infected HEK293T cells harboring luciferase gene assessed as reduction in viral infection after 48 hrs by Bright-Glo luciferase assay
[4] = Inhibition of HIV1 reverse transcriptase G190A mutant in HIV1 infected HEK293T cells harboring luciferase gene assessed as reduction in viral infection after 48 hrs by Bright-Glo luciferase assay
[5] = Inhibition of HIV1 reverse transcriptase Y188H mutant in HIV1 infected HEK293T cells harboring luciferase gene assessed as reduction in viral infection after 48 hrs by Bright-Glo luciferase assay
[6] = Inhibition of HIV1 reverse transcriptase Y181C mutant in HIV1 infected HEK293T cells harboring luciferase gene assessed as reduction in viral infection after 48 hrs by Bright-Glo luciferase assay
[7] = Inhibition of HIV1 reverse transcriptase K103N mutant in HIV1 infected HEK293T cells harboring luciferase gene assessed as reduction in viral infection after 48 hrs by Bright-Glo luciferase assay
[8] = Inhibition of HIV1 reverse transcriptase K103N/Y181C double mutant in HIV1 infected HEK293T cells harboring luciferase gene assessed as reduction in viral infection after 48 hrs by Bright-Glo luciferase assay

Cn1c(=O)[nH]c2cccc(Oc3cc(Cl)cc(C#N)c3)c21
IC50 [1]: 29 nM
IC50 [2]: 236 nM
IC50 [3]: 494 nM
IC50 [4]: 107 nM
IC50 [5]: 74 nM
IC50 [6]: 55 nM
IC50 [7]: 126 nM

CCn1c(=O)[nH]c2cccc(Oc3cc(C#N)cc(/C=C/C#N)c3)c21
IC50 [1]: 49 nM
IC50 [2]: 14 nM
IC50 [3]: 926 nM
IC50 [4]: 377 nM
IC50 [5]: 468 nM
IC50 [6]: 73 nM
IC50 [7]: 166 nM
IC50 [8]: 51 nM

CC1(C)OC(=O)Nc2cccc(Oc3cc(Cl)cc(C#N)c3)c21
IC50 [1]: 21 nM
IC50 [2]: 7 nM
IC50 [3]: 630 nM
IC50 [4]: 2760 nM
IC50 [5]: 1150 nM
IC50 [6]: 28 nM
IC50 [7]: 798 nM
IC50 [8]: 894 nM

CCn1c(=O)[nH]c2cccc(Oc3cc(Cl)cc(C#N)c3)c21
IC50 [1]: 26 nM
IC50 [2]: 7 nM
IC50 [3]: 293 nM
IC50 [4]: 126 nM
IC50 [5]: 415 nM
IC50 [6]: 18 nM
IC50 [7]: 111 nM
IC50 [8]: 52 nM

CCn1c(=O)[nH]c2cccc(Oc3ccccc3)c21
IC50 [1]: 3880 nM

CCC(c1ccccc1)n1c(=O)[nH]c2ccc(Cl)cc21 (stereo unspecified)
IC50 [1]: 36 nM
IC50 [6]: > 200 nM
IC50 [7]: > 200 nM

CCOC(=O)c1[nH]c2ccc(Cl)cc2c1C(SC)c1ccccc1 (stereo unspecified)
IC50 [1]: 39 nM

CCOC(=O)c1[nH]c2ccc(Cl)cc2c1C(OC)c1ccccc1 (stereo unspecified)
IC50 [1]: 16 nM

CCCn1c(=O)[nH]c2cccc(Oc3cc(Cl)cc(C#N)c3)c21
IC50 [1]: 50 nM

CCn1c(=O)[nH]c2cccc(Oc3ccnc(Cl)c3)c21
IC50 [1]: > 44100 nM

CCn1c(=O)[nH]c2cccc(Oc3cc(C#N)ccn3)c21
IC50 [1]: 1360 nM

CCOC(=O)c1[nH]c2ccc(Cl)cc2c1C(OC)c1cc(C)cc(C)c1 (stereo unspecified)
IC50 [1]: 34 nM

CCn1c(=O)[nH]c2cccc(Oc3cccc4ccccc34)c21
IC50 [1]: 2270 nM

CCOC(=O)c1[nH]c2ccc(Cl)cc2c1C(SC)c1cc(C)cc(C)c1 (stereo unspecified)
IC50 [1]: 60 nM

CCn1c(=O)[nH]c2cccc(Oc3ccnc(C#N)c3)c21
IC50 [1]: 13300 nM

CCn1c(=O)[nH]c2cccc(Oc3cc(C)cc(C)c3)c21
IC50 [1]: 303 nM

CCn1c(=O)[nH]c2cccc(Oc3cc(C#N)cc(C#N)c3)c21
IC50 [1]: 63 nM
